What was measured:
[1] = target: T1, nAChR containing α4-T265I (control α4, mutated α4 and β2) (Homo sapiens, UniProt P17787+P43681, T293I); assay: ACh- and CBZ-dose effect, two electrode voltage clamp in Xenopus oocytes expressing receptors containing α4-T265I; format: cell-based
T1 construct: expressed in transfected cells; host or cells: Xenopus oocytes, nuclear cDNA injection
Protocol: Expression experiments in Xenopus oocytes were conducted as previously described (2). Nuclear cDNA injections were conducted using a ratio of 0.5 control α4, 0.5 mutated α4 and 1 β2 (total amount 2 ng/oocytes) (3). The oocytes were kept in BARTH solution containing 88 mM NaCl, 1 mM KCl, 2.4 mM NaHCO3, 10 mM HEPES, 0.82 mM MgSO47H2O, 0.33 mM Ca(NO3)2.4H2O, 0.41 mM CaCl2.6H2O, pH 7.4, adjusted with NaOH and supplemented with kanamycin (20 μg/ml), penicillin (100 μg/ml) and streptomycin (100 μg/ml). Recordings were made 2 to 3 days later using the two electrode voltage clamp technique with a GENE-CLAMP amplifier (Axon Instrument). During the experiments the oocytes were continuously rinsed with OR2 solution: 82.5 mM NaCl, 2.5 mM KCl, 2.5 mM CaCl2, 5 mM HEPES, pH 7.4, adjusted with NaOH. Unless stated otherwise, the holding potential was −100 mV and the experiments were performed at 18° C. ACh dose response curves were best fitted by the sum of two empirical Hill equations: y=Imax{a/(1+(EC50H/x)^nH1)+(1−a)/(1+(EC50L/x)^nH2)} (equation (1)). Imax is the maximal current amplitude and x is the agonist concentration. EC50H, nH1 and a are the half-effective concentration, the Hill coefficient the percentage of receptors in high-affinity state, respectively, whereas EC50L and nH2 correspond to the half-effective concentration and the Hill coefficient in low-affinity state. […]

ADNFLE = ADNFLE patients; antiepileptic drug resistant cases also exist; cited from earlier work

T1 sequence (P43681 29-627 T293I limits assumed): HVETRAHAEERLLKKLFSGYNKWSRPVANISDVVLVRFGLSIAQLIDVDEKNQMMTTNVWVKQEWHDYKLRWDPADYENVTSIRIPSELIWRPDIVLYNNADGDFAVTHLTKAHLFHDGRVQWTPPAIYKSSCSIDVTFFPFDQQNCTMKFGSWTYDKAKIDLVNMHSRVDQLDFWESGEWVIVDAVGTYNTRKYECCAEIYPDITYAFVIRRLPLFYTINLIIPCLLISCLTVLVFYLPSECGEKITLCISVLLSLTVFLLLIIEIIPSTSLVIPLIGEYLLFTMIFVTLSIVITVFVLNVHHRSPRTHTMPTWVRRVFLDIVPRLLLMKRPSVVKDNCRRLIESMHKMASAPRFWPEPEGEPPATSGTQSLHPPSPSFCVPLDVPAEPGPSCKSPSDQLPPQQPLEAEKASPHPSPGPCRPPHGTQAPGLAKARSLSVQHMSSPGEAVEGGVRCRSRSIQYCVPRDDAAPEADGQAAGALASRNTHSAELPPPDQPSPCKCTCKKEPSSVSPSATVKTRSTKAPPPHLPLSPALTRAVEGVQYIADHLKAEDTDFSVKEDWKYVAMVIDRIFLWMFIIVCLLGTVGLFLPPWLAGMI
T1 sequence (P43681 27-627, stated change not applied): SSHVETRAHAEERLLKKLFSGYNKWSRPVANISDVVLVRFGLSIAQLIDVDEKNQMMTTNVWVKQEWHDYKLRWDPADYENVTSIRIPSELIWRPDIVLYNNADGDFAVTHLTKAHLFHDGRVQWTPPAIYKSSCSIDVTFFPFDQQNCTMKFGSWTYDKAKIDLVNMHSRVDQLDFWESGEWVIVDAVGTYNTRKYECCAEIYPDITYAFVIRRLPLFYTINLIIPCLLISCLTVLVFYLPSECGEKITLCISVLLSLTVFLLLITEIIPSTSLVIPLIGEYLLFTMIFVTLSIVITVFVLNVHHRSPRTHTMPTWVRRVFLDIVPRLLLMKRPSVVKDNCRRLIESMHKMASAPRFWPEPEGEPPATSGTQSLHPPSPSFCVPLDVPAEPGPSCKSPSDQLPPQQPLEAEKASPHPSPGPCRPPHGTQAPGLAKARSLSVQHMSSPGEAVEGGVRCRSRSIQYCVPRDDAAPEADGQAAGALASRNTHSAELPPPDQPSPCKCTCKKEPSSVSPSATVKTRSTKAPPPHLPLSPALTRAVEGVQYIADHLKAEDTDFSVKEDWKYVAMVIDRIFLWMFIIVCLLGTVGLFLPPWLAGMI
T1 sequence (P17787 26-502): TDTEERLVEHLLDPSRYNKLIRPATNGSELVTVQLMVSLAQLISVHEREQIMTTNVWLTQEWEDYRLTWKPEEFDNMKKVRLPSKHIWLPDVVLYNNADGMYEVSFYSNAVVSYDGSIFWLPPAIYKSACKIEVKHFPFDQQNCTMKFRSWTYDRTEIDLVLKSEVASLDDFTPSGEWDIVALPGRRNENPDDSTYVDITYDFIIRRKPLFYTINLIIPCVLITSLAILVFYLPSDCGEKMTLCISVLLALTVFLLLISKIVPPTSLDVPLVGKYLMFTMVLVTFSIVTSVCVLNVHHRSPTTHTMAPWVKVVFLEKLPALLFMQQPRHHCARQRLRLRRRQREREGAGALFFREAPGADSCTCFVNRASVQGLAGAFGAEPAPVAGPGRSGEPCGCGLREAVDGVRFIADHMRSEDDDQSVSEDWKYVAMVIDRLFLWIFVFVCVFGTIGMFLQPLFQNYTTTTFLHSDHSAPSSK

In the case of `NC(=O)N1c2ccccc2C=Cc2ccccc21` [Carbamazepin, Carbamazepine], the Carbamazepin-sensitivity ([1]; α4-T265I compared with control, CBZ inhibition of ACh-evoked currents) is listed as “non-increased” and the “Treatability of ADNFLE” value (ADNFLE) is listed as “can normally be well treated”.
For `CC(=O)OCC[N+](C)(C)C` [ACh], the “ACh-sensitivity of the mutated receptors” value ([1]; α4-T265I mutated receptors compared with control, Xenopus oocytes) was “increased”.
